Starred links: 1 amine or outer side, 2 acyl side, 3 side chain; linkers in the order of their positions; H or OH if unused. Positions of bridges follow the written chain, without caps; N, C: chain ends. Non-standard residues stand in square brackets, D forms with d. Residues, ends and D or L forms follow the SMILES beside them. Groups on a side chain read outwards from the residue. ξ: configuration not given here. *: point of attachment. Ala(1-CH2CO2H-4-piperidyl) = N[C@@H](CC1CCN(CC(=O)O)CC1)C(=O)O; Ala(piperidin-4-yl) = O=C([C@H](CC1CCN([*:3])CC1)N[*:1])[*:2]; DOTA = O=C(O)CN1CCN(CC(=O)O)CCN(CC(=O)*)CCN(CC(=O)O)CC1; NH(CH2CH2O)4CH2CO = O=C(COCCOCCOCCOCCN[*:1])[*:2]; Trp(5-F) = N[C@@H](Cc1c[nH]c2ccc(F)cc12)C(=O)O; X1 = C[C@@H](c1ccccc1)[C@H](N[*:1])C(=O)[*:2]; Phe(4-F) = N[C@@H](Cc1ccc(F)cc1)C(=O)O; γGlu = O=C(O)[C@H](CCC(=O)[*:2])N[*:1]; 1Nal = N[C@@H](Cc1cccc2ccccc12)C(=O)O; Ala(4-THP) = N[C@@H](CC1CCOCC1)C(=O)O; Phe(2-OH) = N[C@@H](Cc1ccccc1O)C(=O)O; Val(3-OH) = CC(C)(O)[C@H](N)C(=O)O; tBuAla = CC(C)(C)C[C@H](N)C(=O)O; 3Pal = N[C@@H](Cc1cccnc1)C(=O)O; 4Pal = N[C@@H](Cc1ccncc1)C(=O)O; Aad = N[C@@H](CCCC(=O)O)C(=O)O; Gly(cPr) = N[C@H](C(=O)O)C1CC1; Chg = N[C@H](C(=O)O)C1CCCCC1; PEG4 = NCCOCCOCCOCCOCCC(=O)O; Tle = CC(C)(C)[C@H](N)C(=O)O; hLeu = CC(C)CC[C@H](N)C(=O)O; Nle = CCCC[C@H](N)C(=O)O; ξF = NC(Cc1ccccc1)C(=O)O
target: T1, human 4lg B7-H3 (Homo sapiens, UniProt Q5ZPR3); assay: Affinity determination by surface plasmon resonance (SPR) to 4Ig B7-H3; settings: SPR KD—25° C., 4Ig B7-H3; 25° C. flow cell temperature
T1 sequence (Q5ZPR3 29-534): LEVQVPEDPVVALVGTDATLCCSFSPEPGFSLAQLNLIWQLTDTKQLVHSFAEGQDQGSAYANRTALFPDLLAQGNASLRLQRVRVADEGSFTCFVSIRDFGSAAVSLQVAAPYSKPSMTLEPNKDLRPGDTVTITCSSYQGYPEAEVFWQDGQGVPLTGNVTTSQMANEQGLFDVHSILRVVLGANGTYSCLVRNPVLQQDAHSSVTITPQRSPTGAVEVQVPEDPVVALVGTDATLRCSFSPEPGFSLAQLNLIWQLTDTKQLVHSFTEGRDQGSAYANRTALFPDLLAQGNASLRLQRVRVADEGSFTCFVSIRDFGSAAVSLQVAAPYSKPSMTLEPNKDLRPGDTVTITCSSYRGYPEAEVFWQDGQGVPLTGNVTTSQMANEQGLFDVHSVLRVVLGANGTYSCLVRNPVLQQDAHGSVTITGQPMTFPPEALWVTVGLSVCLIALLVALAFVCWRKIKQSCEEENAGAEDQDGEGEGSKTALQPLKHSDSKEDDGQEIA

Structure (SMILES) | Kd [nM]
CC(=O)N[C@@H](CCC(C)C)C(=O)N[C@@H](Cc1ccc(O)cc1)C(=O)N[C@H]1CSSC[C@@H](C(=O)N[C@@H](Cc2cccc3ccccc23)C(=O)NC(Cc2ccccc2)C(=O)N2CCC[C@H]2C(=O)N[C@H](CCCCNC(=O)CC[C@H](NC(=O)CC[C@H](NC(=O)CC[C@H](NC(=O)CN2CCN(CC(=O)O)CCN(CC(=O)O)CCN(CC(=O)O)CC2)C(=O)O)C(=O)O)C(=O)O)C(N)=O)NC(=O)[C@H](Cc2ccc(O)cc2)NC(=O)[C@H](C(C)C)NC(=O)[C@H](CC(=O)O)NC(=O)[C@H](CC2CCOCC2)NC(=O)[C@H](CCCCN)NC(=O)CNC(=O)[C@H](C(C)(C)C)NC1=O (stereo partly drawn) [compound 276, Ac-hLeu-Y-C-Tbg-G-K-ThpA-D-V-Y-C-1Nal-F-Pro-dLys(gE-gE-gE-DOTA)-CONH2] (Ac-[hLeu]YC[Tle]GK[Ala(4-THP)]DVYC[1Nal][ξF]P[dK]([γGlu-γGlu-γGlu-DOTA])-NH2; disulfide 3-11) | 1 to 10
CC(=O)N[C@@H](CCC(C)C)C(=O)N[C@@H](Cc1ccc(O)cc1)C(=O)N[C@H]1CSSC[C@@H](C(=O)N[C@@H](Cc2c[nH]c3ccccc23)C(=O)N[C@@H](Cc2ccccc2)C(=O)N[C@H](C(=O)N[C@H](CCCCNC(=O)CN2CCN(CC(=O)O)CCN(CC(=O)O)CCN(CC(=O)O)CC2)C(N)=O)[C@@H](C)O)NC(=O)[C@H](Cc2ccc(O)cc2)NC(=O)[C@H](C(C)C)NC(=O)[C@H](CC(=O)O)NC(=O)[C@H](Cc2ccc(O)cc2)NC(=O)[C@H](CCCCN)NC(=O)CNC(=O)[C@H](C2CC2)NC1=O [compound 119, Ac-hLeu-Y-C-Cpg-G-K-Y-D-V-Y-C-W-F-Thr-dLys(DOTA)-CONH2] (Ac-[hLeu]YC[Gly(cPr)]GKYDVYCWFT[dK](DOTA)-NH2; disulfide 3-11) | 10 to 100
CCCC[C@H](NC(C)=O)C(=O)N[C@@H](Cc1ccc(O)cc1)C(=O)N[C@H]1CSSC[C@@H](C(=O)N[C@@H](Cc2c[nH]c3ccccc23)C(=O)N[C@@H](Cc2ccccc2)C(=O)N[C@@H](CO)C(=O)N[C@H](CCCCNC(=O)CN2CCN(CC(=O)O)CCN(CC(=O)O)CCN(CC(=O)O)CC2)C(N)=O)NC(=O)[C@H](Cc2ccc(O)cc2)NC(=O)[C@H](C(C)C)NC(=O)[C@H](CC(=O)O)NC(=O)[C@H](Cc2ccc(O)cc2)NC(=O)[C@H](CCCCN)NC(=O)CNC(=O)[C@H](C(C)C)NC1=O [compound 92, Ac-Nle-Y-C-V-G-K-Y-D-V-Y-C-W-F-Ser-dLys(DOTA)-CONH2] (Ac-[Nle]YCVGKYDVYCWFS[dK](DOTA)-NH2; disulfide 3-11) | 1 to 10
CC[C@H](C)[C@@H]1NC(=O)[C@@H](NC(=O)[C@H](Cc2ccc(O)cc2)NC(=O)[C@H](CCC(C)C)NC(C)=O)CSSC[C@@H](C(=O)N[C@@H](Cc2c[nH]c3ccc(F)cc23)C(=O)N[C@@H](Cc2ccccc2)C(=O)N2CCC[C@H]2C(N)=O)NC(=O)[C@H](Cc2ccc(O)cc2)NC(=O)[C@H](C(C)C)NC(=O)[C@H](CC(=O)O)NC(=O)[C@H](CC2CCOCC2)NC(=O)[C@H](CCCCNC(=O)CN2CCN(CC(=O)O)CCN(CC(=O)O)CCN(CC(=O)O)CC2)NC(=O)CNC1=O [compound 261, Ac-hLeu-Y-C-Ile-G-Lys(DOTA)-ThpA-D-V-Y-C-5FW-F-Pro-CONH2] (Ac-[hLeu]YCIGK(DOTA)[Ala(4-THP)]DVYC[Trp(5-F)]FP-NH2; disulfide 3-11) | 1 to 10
CC(C)CC[C@H](NC(=O)COCCOCCOCCOCCNC(=O)CN1CCN(CC(=O)O)CCN(CC(=O)O)CCN(CC(=O)O)CC1)C(=O)N[C@@H](Cc1ccc(F)cc1)C(=O)N[C@H]1CSSC[C@@H](C(=O)N[C@@H](Cc2cccc3ccccc23)C(=O)N[C@@H](Cc2ccccc2)C(=O)N2CCC[C@H]2C(N)=O)NC(=O)[C@H](Cc2ccc(O)cc2)NC(=O)[C@H](C(C)C)NC(=O)[C@H](CC(=O)O)NC(=O)[C@H](CC2CCOCC2)NC(=O)[C@H](CC2CCNCC2)NC(=O)CNC(=O)[C@H](C(C)(C)C)NC1=O [compound 283, DOTA-PEG4-hLeu-4FPhe-C-Tbg-G-PipAla-ThpA-D-V-Y-C-1Nal-F-Pro-CONH2] ({DOTA}-[NH(CH2CH2O)4CH2CO][hLeu][Phe(4-F)]C[Tle]G[Ala(piperidin-4-yl)][Ala(4-THP)]DVYC[1Nal]FP-NH2; disulfide 4-12) | 10 to 100
CC(=O)N[C@@H](CCC(C)C)C(=O)N[C@@H](Cc1ccc(O)cc1)C(=O)N[C@H]1CSSC[C@@H](C(=O)N[C@@H](Cc2c[nH]c3ccccc23)C(=O)N[C@@H](Cc2ccccc2)C(=O)N[C@H](C(=O)N[C@H](CCCCNC(=O)CN2CCN(CC(=O)O)CCN(CC(=O)O)CCN(CC(=O)O)CC2)C(N)=O)[C@@H](C)O)NC(=O)[C@H](Cc2ccc(O)cc2)NC(=O)[C@H](C2CCCCC2)NC(=O)[C@H](CC(=O)O)NC(=O)[C@H](Cc2ccncc2)NC(=O)[C@H](CCCCN)NC(=O)CNC(=O)[C@H](C(C)C)NC1=O [compound 153, Ac-hLeu-Y-C-V-G-K-4PyA-D-ChG-Y-C-W-F-Thr-dLys(DOTA)-CONH2] (Ac-[hLeu]YCVGK[4Pal]D[Chg]YCWFT[dK](DOTA)-NH2; disulfide 3-11) | < 1
CC(=O)N[C@@H](CCC(C)C)C(=O)N[C@@H](Cc1ccc(O)cc1)C(=O)N[C@H]1CSSC[C@@H](C(=O)N[C@@H](Cc2c[nH]c3ccc(F)cc23)C(=O)N[C@@H](Cc2ccccc2)C(=O)N[C@H](C(=O)N[C@H](CCCCNC(=O)CN2CCN(CC(=O)O)CCN(CC(=O)O)CCN(CC(=O)O)CC2)C(N)=O)[C@@H](C)O)NC(=O)[C@H](Cc2cccnc2)NC(=O)[C@H](C(C)C)NC(=O)[C@H](CC(=O)O)NC(=O)[C@H](Cc2ccc(O)cc2)NC(=O)[C@H](CCCCN)NC(=O)CNC(=O)[C@H](C(C)C)NC1=O [compound 170, Ac-hLeu-Y-C-V-G-K-Y-D-V-3PyA-C-5FW-F-Thr-dLys(DOTA)-CONH2] (Ac-[hLeu]YCVGKYDV[3Pal]C[Trp(5-F)]FT[dK](DOTA)-NH2; disulfide 3-11) | 1 to 10
CC(=O)N[C@@H](CCC(C)C)C(=O)N[C@@H](Cc1ccc(O)cc1)C(=O)N[C@H]1CSSC[C@@H](C(=O)N[C@@H](Cc2c[nH]c3ccc(F)cc23)C(=O)N[C@@H](CC(C)(C)C)C(=O)N[C@H](C(=O)N[C@H](CCCCNC(=O)CN2CCN(CC(=O)O)CCN(CC(=O)O)CCN(CC(=O)O)CC2)C(=O)O)[C@@H](C)O)NC(=O)[C@H](Cc2ccc(O)cc2)NC(=O)[C@H](C(C)C)NC(=O)[C@H](CC(=O)O)NC(=O)[C@H](CC2CCOCC2)NC(=O)[C@H](CCCCN)NC(=O)CNC(=O)[C@H](C(C)(C)C)NC1=O [compound 360, Ac-hLeu-Y-C-Tbg-G-K-ThpA-D-V-Y-C-5FW-tBuAla-Thr-dLys(DOTA)-COOH] (Ac-[hLeu]YC[Tle]GK[Ala(4-THP)]DVYC[Trp(5-F)][tBuAla]T[dK](DOTA)-OH; disulfide 3-11) | 1 to 10

same assay, conditions: SPR KD—37° C., 4Ig B7-H3; 37° C. flow cell temperature

Structure (SMILES) | Kd [nM]
CC(=O)N[C@@H](CCC(C)C)C(=O)N[C@@H](Cc1ccc(O)cc1)C(=O)N[C@H]1CSSC[C@@H](C(=O)N[C@@H](Cc2c[nH]c3ccc(F)cc23)C(=O)N[C@@H](Cc2ccccc2)C(=O)N[C@H](C(=O)N[C@H](CCCCNC(=O)CN2CCN(CC(=O)O)CCN(CC(=O)O)CCN(CC(=O)O)CC2)C(=O)O)C(C)(C)O)NC(=O)[C@H](Cc2ccccc2O)NC(=O)[C@H](C(C)C)NC(=O)[C@H](CC(=O)O)NC(=O)[C@H](CC2CCOCC2)NC(=O)[C@H](CC2CCNCC2)NC(=O)CNC(=O)[C@H](C(C)(C)C)NC1=O [compound 467, Ac-hLeu-Y-C-Tbg-G-PipAla-ThpA-D-V-20HPhe-C-5FW-F-hydroxyVal-dLys(DOTA)-COOH] (Ac-[hLeu]YC[Tle]G[Ala(piperidin-4-yl)][Ala(4-THP)]DV[Phe(2-OH)]C[Trp(5-F)]F[Val(3-OH)][dK](DOTA)-OH; disulfide 3-11) | 1 to 10
CC(=O)N[C@@H](CCC(C)C)C(=O)N[C@@H](Cc1ccc(O)cc1)C(=O)N[C@H]1CSSC[C@@H](C(=O)N[C@@H](Cc2c[nH]c3ccc(F)cc23)C(=O)N[C@@H](Cc2ccccc2)C(=O)N[C@H](C(=O)N[C@H](C)C(=O)O)C(C)(C)O)NC(=O)[C@H](Cc2ccc(O)cc2)NC(=O)[C@H](C(C)C)NC(=O)[C@H](CC(=O)O)NC(=O)[C@H](CC2CCN(C(=O)CCOCCOCCOCCOCCNC(=O)CN3CCN(CC(=O)O)CCN(CC(=O)O)CCN(CC(=O)O)CC3)CC2)NC(=O)[C@H](CC2CCN(CC(=O)O)CC2)NC(=O)CNC(=O)[C@H](C(C)(C)C)NC1=O [compound 488, Ac-hLeu-Y-C-Tbg-G-Pip(CH2COOH)Ala-Pip(PEG4-DOTA)Ala-D-V-Y-C-5FW-F-hydroxyVal-dAla-COOH] (Ac-[hLeu]YC[Tle]G[Ala(1-CH2CO2H-4-piperidyl)][Ala(piperidin-4-yl)]([PEG4-DOTA])DVYC[Trp(5-F)]F[Val(3-OH)][dA]-OH; disulfide 3-11) | < 1
CC(=O)N[C@@H](CCC(C)C)C(=O)N[C@@H](Cc1ccc(O)cc1)C(=O)N[C@H]1CSSC[C@@H](C(=O)N[C@@H](Cc2c[nH]c3ccc(F)cc23)C(=O)N[C@H](C(=O)N[C@H](C(=O)N[C@H](CCCCNC(=O)[C@H](CCCC(=O)O)NC(=O)CN2CCN(CC(=O)O)CCN(CC(=O)O)CCN(CC(=O)O)CC2)C(=O)O)C(C)(C)O)[C@@H](C)c2ccccc2)NC(=O)[C@H](Cc2ccc(O)cc2)NC(=O)[C@H](C(C)C)NC(=O)[C@H](CC(=O)O)NC(=O)[C@H](CC2CCOCC2)NC(=O)[C@H](CC2CCN(CC(=O)O)CC2)NC(=O)CNC(=O)[C@H](C(C)(C)C)NC1=O [compound 525, Ac-hLeu-Y-C-Tbg-G-Pip(CH2COOH)Ala-ThpA-D-V-Y-C-5FW-[(2S, 3S)beta-Me-Phe]-hydroxyVal-dLys(hGlu-DOTA)-COOH] (Ac-[hLeu]YC[Tle]G[Ala(1-CH2CO2H-4-piperidyl)][Ala(4-THP)]DVYC[Trp(5-F)][X1][Val(3-OH)][dK]([Aad-DOTA])-OH; disulfide 3-11) | < 1
